# Assay results reported in PubChem BioAssay (NCI).
# “And” between values parts separate entries of the source, which are not always exact repeats. Equal values may be shown once.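 The compound was tested at five concentrations on cells cultured in 96-well plates, with a 48-hour exposure period. The concentration for 50% growth inhibition is given as GI50. TGI: concentration producing complete growth inhibition.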
# Legend:
# Assay in all cases: NCI anticancer screen, dose series, 48 h
# SNB-75 CNS = test system: SNB-75 CNS
# UACC-62 melanoma = test system: UACC-62 melanoma
# U251 CNS = test system: U251 CNS
# RPMI-8226 leukemia = test system: RPMI-8226 leukemia
# NCI-H23 lung = test system: NCI-H23 lung
# 786-0 renal = test system: 786-0 renal
# SF-539 CNS = test system: SF-539 CNS
# OVCAR-5 ovarian = test system: OVCAR-5 ovarian
# EKVX NSCLC = test system: EKVX NSCLC
# A498 renal = test system: A498 renal
Compound,GI50 (SNB-75 CNS) [µM],TGI (SNB-75 CNS),GI50 (UACC-62 melanoma) [µM],TGI (UACC-62 melanoma),GI50 (U251 CNS) [µM],TGI (U251 CNS),GI50 (RPMI-8226 leukemia),GI50 (NCI-H23 lung) [µM],TGI (NCI-H23 lung),GI50 (786-0 renal) [µM],GI50 (SF-539 CNS) [µM],TGI (SF-539 CNS),GI50 (OVCAR-5 ovarian) [µM],TGI (OVCAR-5 ovarian),GI50 (EKVX NSCLC) [µM],TGI (EKVX NSCLC),TGI (A498 renal),TGI (RPMI-8226 leukemia),TGI (786-0 renal),GI50 (A498 renal) [µM]
C/C=C1\C[C@@H]2C(OC)Nc3cc(O)c(OC)cc3C(=O)N2C1 (some centres not stated),0.00482,0.0205 µM and 0.0167 µM,0.00284,0.00948 µM,0.00353,10.1 µM,0.00269 µM,0.00262,0.00892 µM,0.00529,0.00315,0.00892 µM and < 0.0283 µM,0.00775,0.0632 µM and 0.306 µM,0.0176,0.105 µM and 0.0346 µM,0.0834 µM,,,
O=[N+]([O-])c1cc([N+](=O)[O-])c(C(Cl)C(Cl)c2ccccc2)cc1C(Cl)C(Cl)c1ccccc1 (configuration not stated),,5.17 µM,,3.7 µM,,3.26 µM,,,3.72 µM,,,3.33 µM,,4.43 µM,,4.28 µM,3.33 µM,8.38 µM,3.12 µM,
CN1CCN(CCCN2c3ccccc3Sc3ccc(C(F)(F)F)cc32)CC1,6.4,22.7 µM and 16.8 µM and 20.8 µM,1.57,3.08 µM and 4.34 µM and 3.91 µM,1.7,3.56 µM and 18.1 µM and 21.4 µM,2.21 µM and 2.06 µM and 6.37 µM,3.29,14.1 µM and 26.7 µM and 27.7 µM,1.78,1.94,4.12 µM and 18.6 µM and 20.1 µM,1.99,4.28 µM and 24.9 µM and 23.2 µM,2.34,10.8 µM and 27.9 µM and 28.3 µM,12.9 µM and 29.5 µM and 26.7 µM,5.09 µM and 22.1 µM,3.33 µM and 16.1 µM and 21.6 µM,2.4
O=[N+]([O-])c1ccc(NN=C2c3ccccc3Cc3ccccc32)c([N+](=O)[O-])c1,,75.1 µM,,> 100 µM,,> 100 µM,,,> 100 µM,,,> 100 µM,,> 100 µM,,> 100 µM,> 100 µM,> 100 µM,> 100 µM,
COc1cc2c3c(c1OCc1ccccc1)NCCC3NCC2 (configuration not stated),,> 100 µM,,> 100 µM,,> 100 µM,,,> 100 µM,,,> 100 µM,,> 100 µM,,> 100 µM,> 100 µM,> 100 µM,> 100 µM,
Cc1[nH]c2ccccc2c1C1=CC(=O)C=CC1=O,9.19,34.7 µM,10.4,23.4 µM,14.8,31.4 µM,11 µM,13,31.5 µM,20.1,14.3,28.3 µM,17.7,32.8 µM,17.7,45 µM,40 µM,38.2 µM,43.3 µM,14.5
Cc1ccc(S(=O)(=O)NC(=O)C#CCOC2CCCCO2)cc1 (configuration not stated),,> 100 µM,,> 100 µM,,> 100 µM,,,> 100 µM,,,> 100 µM,,> 100 µM,,> 100 µM,> 100 µM,> 100 µM,> 100 µM,
N#CC(C(=O)C(=O)Nc1ccc(Cl)c(Cl)c1)c1ccc(Cl)cc1 (configuration not stated),,> 100 µM,,> 100 µM,,> 100 µM,,,> 100 µM,,,> 100 µM,,> 100 µM,,> 100 µM,> 100 µM,> 100 µM,> 100 µM,
CNC(=O)c1c(NC(=O)c2ccc(C(C)C)cc2)sc2c1CCC(=O)C2,1.05,3.53 µM,0.453,1.94 µM,0.253,1.42 µM,0.114 µM,0.418,3.92 µM,0.636,0.306,1.22 µM,0.496,1.93 µM,0.719,2.74 µM,3.78 µM,0.675 µM,3.91 µM,0.715
